Data as given in patent US20020137154A1, “Methods for improving cell growth and alcohol production during fermentation” (priority 2000, published 2002).

Key:
[1] = system: recombinant Escherichia coli KO11; assay: Batch fermentation of E. coli KO11 in 1% CSL medium and xylose with nutrient additives: ethanol production and cell growth; type: cell-based; conditions: for activity at 2000 µg/mL: Escherichia coli
Description: (§1) Two types of media were tested: 1% CSL and Luria broth (LB). Each contained 97 g of either xylose or glucose per liter. Luria Broth consists of, per liter: 10 g Difco® Tryptone, 5 g Difco® Yeast Extract and 5 g NaCl. The 1% CSL medium consists of Corn Steep Liquor (1% w/v) plus mineral salts (mineral salts per liter: 1 g of KH2PO4. 0.5 g of K2HPO4, 3.1 g of (NH4)2SO4, 0.4 g of MgCl2·6H2), and 20 mg FeCl3·6H2O).
(§2) Luria Broth was prepared by autoclaving a 2× nutrient stock containing, per liter: 20 g Difco® Tryptone, 10 g Difo® Yeast Extract, and 10 g NaCl. Sugars (xylose or glucose) were autoclaved separately. A 1% CSL medium was prepared as follows: Commercial Corn Steep Liquor (CSL; 50% dry weight/50% water) was diluted with tap water to make a 20X stock containing 100 g dry weight of Corn Steep Liquor/L and was adjusted to pH 7.2 with NaOH (50%). After sterilization by autoclaving, the 20X CSL stock was clarified by centrifugation at 5000×g for 10 minutes. Magnesium was added as a 100× stock solution (40 g/L MgCl2·6H2O). Iron was added as a 1000× stock solution made by dissolving 20 g FeCl3·6H2O in 175 mL of HCl and adjusting to 1 L with sterile water. Nitrogen, sulfur and phosphorus were added using a 20× stock solution containing the following (per liter): 20 g of KH2PO4, 10 g of K2HPO4 and 62 g of (NH4)2SO4. Stock solutions containing minerals were sterilized separately by autoclaving. Final media was prepared by adding 750 mL of water to 1 L bottle containing 100 g of xylose or glucose.
Inocula were grown in same media used for fermentation and were prepared as follows. Three colonies from a fresh plate were used to inoculate seed cultures: 250-mL flask containing 100 mL medium. These cultures were grown with agitation (120 rpm) for 12-16 hours at 35° C. to a final OD550nm of approximately 2.0-2.5. Cells were harvested by centrifugation at 5000×g for 5 minutes, and resuspended in fresh media to an OD550nm of 0.1. The resulting suspension was distributed into 500-mL beakers containing 345 ml each of fermentation medium. Acetaldehyde was added as indicated. Batch fermentations (35° C., 100 rpm) were maintained at pH 6.5 by the automatic addition of 2N KOH. Cell mass, ethanol, and base addition (2N KOH) were recorded during 96 hours of incubation. […]
(§3) Additives (e.g., as listed in Table 1) were dissolved in 5 mL di-H2O. Solutions with pH lower than 5 were neutralized to pH 6.5 with 2N KOH. Nutritional supplements were then filter-sterilized (0.45 μm filter disk) directly into the fermentation vessel containing the culture. The final concentration of all additives in the culture medium was 2 g/L unless otherwise indicated.
(§4) Cell mass was estimated by measuring OD550nm using Baush & Lomb® Spectronic 70 spectrophotometer. […] Ethanol was measured by gas chromatography using a Varian® 3400 CX gas chromatograph with 1-propanol as an internal standard.
(§5) Tables 1, 3, and 5 show time to completion of fermentation, ethanol production, and volumetric productivity of the fermentation for all concentrations of the compound and the control. Maximum ethanol production is shown in grams/liter (g/L). The ethanol yield is shown in grams of ethanol/grams of added sugar. Maximum volumetric productivity is shown in grams ethanol/(liter)(hour). The average productivity is calculated form the start of fermentation to the completion of fermentation is grams ethanol/(liter)hour).
Tables 2, 4, and 6 show the initial growth of the cells (OD taken after the first 24 hours of fermentation) and the maximum cell density (the time which culture reaches the maximum OD value). […]

[2] = system: recombinant Escherichia coli KO11; assay: Batch fermentation of E. coli KO11 in 1% CSL medium and glucose with nutrient additives: ethanol production and cell growth; type: cell-based; conditions: for activity at 2000 µg/mL: Escherichia coli
Description: as §1, §2
Inocula were grown in same media used for fermentation and were prepared as follows. Three colonies from a fresh plate were used to inoculate seed cultures: 250-mL flask containing 100 mL medium. These cultures were grown with agitation (120 rpm) for 12-16 hours at 35° C. to a final OD550nm of approximately 2.0-2.5. Cells were harvested by centrifugation at 5000×g for 5 minutes, and resuspended in fresh media to an OD550nm of 0.1. The resulting suspension was distributed into 500-mL beakers containing 345 ml each of fermentation medium. Acetaldehyde was added as indicated. Batch fermentations (35° C., 100 rpm) were maintained at pH 6.5 by the automatic addition of 2N KOH. Cell mass, ethanol, and base addition (2N KOH) were recorded during 96 hours of incubation.
Equivalent amounts of distilled water were added instead of the acetaldehyde in control experiments.
as §3, §4, §5
Tables 2, 4, and 6 show the initial growth of the cells (OD taken after the first 24 hours of fermentation) and the maximum cell density (the time which culture reaches the maximum OD value).
Acetaldehyde was added to the fermentation medium at five different concentrations and time points. […] Where two additions are indicated, the first volume was added at the start of fermentation and the second was added after 8 hours of fermentation.

[3] = 1% CSL+xylose, additive 2 g/L unless indicated
[4] = 1% CSL+glucose, additive 2 g/L unless indicated

O=C(O)CC(=O)C(=O)O [Oxaloacetate]
Ethanol Production Maximum [1, 3]: 23.61 g/L
Ethanol yield [1, 3]: 0.243 grams of ethanol/grams of added sugar
Initial Growth (OD @ 24 h) OD [1, 3]: 1.65 OD
Maximum Cell Density OD [1, 3]: 2.26 OD
Maximum Cell Density Time [1, 3]: 96 h
Volumetric Productivity Average [1, 3]: 0.246 grams ethanol/(liter)(hour)
Volumetric Productivity Maximum [1, 3]: 0.270 grams ethanol/(liter)(hour)
activity at 2000 µg/mL ([1]; 24 h, read-out: Initial Growth (OD @ 24 h) % Control, 1% CSL+xylose, additive 2 g/L unless indicated): 80.8%
activity at 2000 µg/mL ([1]; read-out: Ethanol Production Maximum % Control, 1% CSL+xylose, additive 2 g/L unless indicated): 78.5%
activity at 2000 µg/mL ([1]; read-out: Maximum Cell Density % Control, 1% CSL+xylose, additive 2 g/L unless indicated): 89.9%
activity at 2000 µg/mL ([1]; read-out: Volumetric Productivity Average % Control, 1% CSL+xylose, additive 2 g/L unless indicated): 78.5%
activity at 2000 µg/mL ([1]; read-out: Volumetric Productivity Maximum % Control, 1% CSL+xylose, additive 2 g/L unless indicated): 73.3%
Ethanol Production Maximum [2, 4]: 39.72 g/L
Ethanol yield [2, 4]: 0.409 grams of ethanol/grams of added sugar
Initial Growth (OD @ 24 h) OD [2, 4]: 3.29 OD
Maximum Cell Density OD [2, 4]: 3.46 OD
Volumetric Productivity Average [2, 4]: 0.552 grams ethanol/(liter)(hour)
Volumetric Productivity Maximum [2, 4]: 0.712 grams ethanol/(liter)(hour)
activity at 2000 µg/mL ([2]; 24 h, read-out: Initial Growth (OD @ 24 h) % Control, 1% CSL+glucose, additive 2 g/L unless indicated): 123%
activity at 2000 µg/mL ([2]; read-out: Ethanol Production Maximum % Control, 1% CSL+glucose, additive 2 g/L unless indicated): 107%
activity at 2000 µg/mL ([2]; read-out: Maximum Cell Density % Control, 1% CSL+glucose, additive 2 g/L unless indicated): 129%
activity at 2000 µg/mL ([2]; read-out: Volumetric Productivity Average % Control, 1% CSL+glucose, additive 2 g/L unless indicated): 143%
activity at 2000 µg/mL ([2]; read-out: Volumetric Productivity Maximum % Control, 1% CSL+glucose, additive 2 g/L unless indicated): 138%

O=C(O)CC(C(=O)O)C(O)C(=O)O (stereo not shown) [Isocitrate]
Ethanol Production Maximum [1, 3]: 33.02 g/L
Ethanol yield [1, 3]: 0.340 grams of ethanol/grams of added sugar
Maximum Cell Density OD [1, 3]: 3.01 OD
Maximum Cell Density Time [1, 3]: 96 h
Volumetric Productivity Average [1, 3]: 0.344 grams ethanol/(liter)(hour)
Volumetric Productivity Maximum [1, 3]: 0.435 grams ethanol/(liter)(hour)
activity at 2000 µg/mL ([1]; read-out: Maximum Cell Density % Control): 119%
activity at 2000 µg/mL ([1]; read-out: Volumetric Productivity Maximum % Control): 118%
Ethanol Production Maximum [2, 4]: 33.95 g/L
Ethanol yield [2, 4]: 0.349 grams of ethanol/grams of added sugar
Volumetric Productivity Average [2, 4]: 0.471 grams ethanol/(liter)(hour)
Volumetric Productivity Maximum [2, 4]: 0.588 grams ethanol/(liter)(hour)
activity at 2000 µg/mL ([2]; read-out: Ethanol Production Maximum % Control): 91.8%
activity at 2000 µg/mL ([2]; read-out: Volumetric Productivity Average % Control): 122%
